Laboratory results reported in patent publication EP0207599A1, “Arachidonic acid analogues” (BEECHAM GROUP PLC, priority 1985, dated 1987).

tested on: Phospholipase A2 (Naja naja venom , Sigma); experiment: Inhibition of phospholipase A2 activity (release of 14C-arachidonic acid from phosphatidylcholine substrate); assay type: biochemical; settings: at 20µM; mean ± standard deviation of triplicate samples; 37°C, pH 8.7, CaCl2 4mM
Procedure: Method For The Measurement of Inhibition of Phospholipase A2 Activity
Enzyme: Phospholipase A2 (Naja naja venom , Sigma)
Substrate: Diarachidoyl phosphatidylcholine (10.6mg) and α-1-palmitayl-2-[1-^14C]-arachidonyl phosphatidylcholine (0.5pCi; 52.9nCi/mMol) in 28ml of TrisHCl buffer = […], pH 8.7) ultrasonicated.
Assay: Incubations containing PLA2 (0.125ng) in Tris HC1 buffer (100mM, pH 8.7) and CaCl2 (4mM) were prepared on ice. Immediately prior to incubation at 37°C 5µl of DMSO or compound in DMSO were added. The final assay volume was 1.75ml. After 10 minutes incubation at 37°C 750pl of substrate was added, with mixing, and the incubation continued for a further 15 min. The reaction is terminated by placing on ice and adding 5m1 CHCl3:MeOH (2:1v/v).
The lower organic phase is remaved ahd stored under N2 at -20°C until analysed. Analysis is by 1-dimensional t.l.c. on polygram Sil G sheets in the solvent system: petroleum ether: diethyl ether: acetic acid (60:40:1, v/v). In this solvent system the phospholipid remains at the origin and the arachidonic acid has an approximate Rf. value of 0.36. The areas of interest are cut from the plates and their radioactivity determined by liquid scintillation counting.
All compounds are tested in triplicate.
Calculation: The radioactivity of the arachidonic acid is expressed as a percentage of the total dpm cut from the plate. The percentage inhibition of arachidonic acid release compared to that of the control is calculated after correction for the level of spontaneous release where: • x = % corrected mean arachidonic acid release in control • y = % corrected arachidonic acid release after inhibition [formula]
The nean of the triplicate sanples is calculated giving z ± standard deviation %.

`CCCCCC/C=C\c1ccccc1/C=C\CCCC(=O)O` [Example 25, 6-[2-((Z)-1-octenyl)phenyl]-(Z)-hex-5-en-1-oic acid] and “6-(2-(1-Octynyl)pheny]-E-hex-5-en-1-oic acid [Example 2]” are within error of each other in “Percent inhibition of phospholipase A2 at x µM concentration.” value (“Percent inhibition of phospholipase A2” for short): 69.8± 8.3 at 20µM % for the first, 76.2± 13.9 at 20µM % for the second.

First: CCCCCC/C=C\c1ccccc1/C=C\CCC(C(=O)O)C(=O)O [Example 15, 2-(4-[2-(Z)-1-Octenyl)phenyl-(Z)-but-3-enyl)malonic acid]
Second: 6-[2-(1-Octynyl)phenyl)hex-5-yn-1-oic acid [Example 23]
The “Percent inhibition of phospholipase A2” value of the first is higher: 65.0± 17.0 at 20µM % for the first, 25.0± 19.0 at 20µM % for the second.

`CCCCCC/C=C\c1ccccc1/C=C/CCCC(=O)O` [Example 3, 6-[2-(Z-1-Octenyl)phenyl]-E-hex-5-en-1-oic acid] and `CCCCCCC#Cc1cccc(/C=C/CCCC(=O)O)c1` [Example 5, 6-[3-(1-Octynyl)phenyl]-E-hex-5-en-1-oic acid] are within error of each other in “Percent inhibition of phospholipase A2” value: 72.9± 10.3 at 20µM % for the first, 78.9± 4.7 at 20µM % for the second.

Going from `CCCCCCC#Cc1ccccc1C#CCCC(C(=O)O)C(=O)OC(C)(C)C` (centres unmarked) [Example 21, 2-(4-[2-(1-Octynyl)phenyl]-but-3-ynyl)malonic acid monotertbutyl ester] to `CCCCCCC#Cc1ccccc1C#CCCC(C(=O)O)C(=O)O` [Example 13, 2-(4-[2-(1-octynyl)phenyl]-but-3-ynyl)malonic acid.], the “Percent inhibition of phospholipase A2” value falls from 62.0± 4.4 at 20µM % to 23.1± 17.6 at 20µM %.
